# Measurements taken from patent publication US10092592B2, “Application of cyclic dinucleotide (cGAMP) in anti-tumor field” (FUDAN UNIVERSITY, priority 2014, dated 2018).
# Key:
# Assay type in all cases: in vivo
# [1] = test system: human hepatocellular carcinoma cell line SMMC-7721; assay: Subcutaneously transplanted tumor of human hepatocellular carcinoma cell line SMMC-7721 in nude mice; conditions: SMMC-7721 in BALB/c nude mice; for Average Tumor Weight: mean ± SD, n = 8
# Experimental: (§1) Anti-tumor effect of cGAMP (cyclized GMP-AMP) was detected by employing a tumor-bearing mouse model to test inhibition effect of cGAMP on subcutaneously transplanted tumor.
# (§2) Animals: Nude mouse BALB/c, male, with a body weight of 16-18 g, 4-6 weeks old, SPF grade, purchased from SLAC LABORATORY ANIMAL [certification number: SCXK (Shanghai) 2007-0005].
# (§3) Dose: cGAMP was injected into abdominal cavities of mice, and two dose groups were set as followed: 10 mg/kg and 40 mg/kg.
# (§4) Experimental Controls: • Negative control: brine solution • Positive control: 5-fluorouracil (5-FU), with a dose of 20 mg/kg
# (§5) Administration Method: • Administration route: administration by intraperitoneal injection • Administration frequency: once a day for 14 days • Number of each group of animals: 8
# (§6) Tumor cell lines: human gastric carcinoma cell line MNK-45, human lung adenocarcinoma cell line A549, human colorectal carcinoma cell line Lovo, human hepatocellular carcinoma cell line SMMC-7721, human prostatic carcinoma cell line PC-3 and human pancreatic carcinoma cell SW1990, purchased from the Cell Bank of the Chinese Academy of Sciences, are included in the above mentioned tumor cell lines.
# (§7) 1. establishing a tumor-bearing mouse model and allowing intervention, including: cultivating and passaging cells, collecting cells in logarithmic phase, and making into a cell suspension with a concentration of 1.0×10^7/ml, injecting 0.2 ml of the cell suspension into the nude mice through their right arm armpits to make them get a tumor, and randomly dividing the nude mice into four groups: a negative control which is a group injected with brine through intraperitoneal injection, a 5-FU group which is a group injected with 5-FU through intraperitoneal injection, a cGMP-AMP low-dose group which is a group injected with 10 mg/kg of cGMP-AMP through intraperitoneal injection, and a cGMP-AMP high-dose group which is a group injected with 40 mg/kg of cGMP-AMP through intraperitoneal injection, administrating once a day for 14 days, then killing the nude mice and weighing the wts. Of tumor and calculating a tumor inhibition rate, which is calculated by the following equation: tumor inhibition rate[1−average tumor weight of experimental groups/average tumor weight of A group]×100%, wherein the experimental groups are B, C and D groups; separately establishing 6 subcutaneously implanted tumor models: human gastric carcinoma cell line MNK-45, human lung adenocarcinoma cell line A549, human colorectal carcinoma cell line Lovo, human hepatocellular carcinoma cell line SMMC-7721, human prostatic carcinoma cell line PC-3 and human pancreatic carcinoma cell SW1990, and observing the effect of cGAMP; and
# (§8) 2. allowing statistical analysis: representing the data by x±s, processing the data with a software SPSS-10.0, analyzing by one-way ANOVA, comparing the significance of tumor weight differences among the groups, wherein the level of significance is a=0.05.
# [2] = test system: human pancreatic carcinoma cell SW1990; assay: Subcutaneously transplanted tumor of human pancreatic carcinoma cell SW1990 in nude mice; conditions: SW1990 in BALB/c nude mice; for Average Tumor Weight: mean ± SD, n = 8
# Experimental: as §1, §2, §3, §4, §5, §6, §7, §8
# [3] = test system: human prostatic carcinoma cell line PC-3; assay: Subcutaneously transplanted tumor of human prostatic carcinoma cell line PC-3 in nude mice; conditions: PC-3 in BALB/c nude mice; for Average Tumor Weight: mean ± SD, n = 8
# Experimental: as §1, §2, §3, §4, §5, §6, §7, §8
# [4] = test system: human colorectal carcinoma cell line Lovo; assay: Subcutaneously transplanted tumor of human colorectal carcinoma cell line Lovo in nude mice; conditions: Lovo in BALB/c nude mice; for Average Tumor Weight: mean ± SD, n = 8
# Experimental: as §1, §2, §3, §4, §5, §6, §7, §8
# [5] = test system: human lung adenocarcinoma cell line A549; assay: Subcutaneously transplanted tumor of human lung adenocarcinoma cell line A549 in nude mice; conditions: A549 in BALB/c nude mice; for Average Tumor Weight: mean ± SD, n = 8
# Experimental: as §1, §2, §3, §4, §5, §6, §7, §8
# [6] = test system: human gastric carcinoma cell line MNK-45; assay: Subcutaneously transplanted tumor of human gastric carcinoma cell line MNK-45 in nude mice; conditions: MNK-45 in BALB/c nude mice; for Average Tumor Weight: mean ± SD, n = 8
# Experimental: as §1, §2, §3, §4, §5, §6, §7, §8
# ICR mice = assay: Acute toxicity, single tail intravenous injection
# Experimental: The materials are 20 of ICR mice, which are purchased from SLAC LABORATORY ANIMAL [certification number: SCXK (Shanghai) 2007-0005], are half male and half female, have body weights within 18-22 g, are fed with granular feedstuff and are free to find food and drink.
# The method includes: subjecting the ICR mice to single tail intravenous injection of 10 ml/kg cGMAP based on their body weights, namely 2 g/kg, observing toxic reactions and deaths after administration within 14 days.
# [7] = 20 mg/kg intraperitoneal once a day for 14 days
# [8] = high dose 40 mg/kg intraperitoneal once a day for 14 days
# [9] = low dose 10 mg/kg intraperitoneal once a day for 14 days
# [10] = single tail intravenous injection 2 g/kg (10 ml/kg)
structure (smiles),measurement,setting,value
"O=c1[nH]cc(F)c(=O)[nH]1 [5-FU, 5-fluorouracil, reference compound]",Average Tumor Inhibition Rate,[1]; [7],72.7%
same,Average Tumor Weight,[1]; [7],0.853 ± 0.082 (g)
same,Average Tumor Inhibition Rate,[2]; [7],76.8%
same,Average Tumor Weight,[2]; [7],0.685 ± 0.086 (g)
same,Average Tumor Inhibition Rate,[3]; [7],76.3%
same,Average Tumor Weight,[3]; [7],0.728 ± 0.102 (g)
same,Average Tumor Inhibition Rate,[4]; [7],71.7%
same,Average Tumor Weight,[4]; [7],0.769 ± 0.101 (g)
same,Average Tumor Inhibition Rate,[5]; [7],70.3%
same,Average Tumor Weight,[5]; [7],0.843 ± 0.210 (g)
same,Average Tumor Inhibition Rate,[6]; [7],76.9%
same,Average Tumor Weight,[6]; [7],0.619 ± 0.214 (g)
"Nc1nc2c(ncn2[C@@H]2O[C@@H]3COP(=O)(O)O[C@H]4[C@@H](O)[C@H](n5cnc6c(N)ncnc65)O[C@@H]4COP(=O)(O)O[C@@H]2[C@@H]3O)c(=O)[nH]1 [cGAMP, cyclized GMP-AMP]",Average Tumor Inhibition Rate,[1]; [8],65.2%
same,Average Tumor Weight,[1]; [8],1.089 ± 0.130 g
same,Average Tumor Inhibition Rate,[1]; [9],38.7%
same,Average Tumor Weight,[1]; [9],1.916 ± 0.174 (g)
same,Average Tumor Inhibition Rate,[2]; [8],67.4%
same,Average Tumor Weight,[2]; [8],0.964 ± 0.109 g
same,Average Tumor Inhibition Rate,[2]; [9],44.8%
same,Average Tumor Weight,[2]; [9],1.631 ± 0.133 (g)
same,deaths within 14 days after administration,ICR mice; [10],no death was observed
same,"pathological changes in organs by naked eyes on dissection, 15th day",ICR mice; [10],no obvious pathological changes in organs were observed
same,toxic reactions after the single tail intravenous injection,ICR mice; [10],normal physiological activity was observed
same,maximum tolerated dose of intravenous injection MTD,"ICR mice; single tail intravenous injection, observed 14 days",not less than 2 g/kg
same,Average Tumor Inhibition Rate,[3]; [8],69.6%
same,Average Tumor Weight,[3]; [8],0.932 ± 0.148 g
same,Average Tumor Inhibition Rate,[3]; [9],52.2%
same,Average Tumor Weight,[3]; [9],1.467 ± 0.201 (g)
same,Average Tumor Inhibition Rate,[4]; [8],55.7%
same,Average Tumor Weight,[4]; [8],1.204 ± 0.122 (g)
same,Average Tumor Inhibition Rate,[4]; [9],36.9%
same,Average Tumor Weight,[4]; [9],1.714 ± 0.137 g
same,Average Tumor Inhibition Rate,[5]; [8],59.4%
same,Average Tumor Weight,[5]; [8],1.151 ± 0.121 (g)
same,Average Tumor Inhibition Rate,[5]; [9],44.9%
same,Average Tumor Weight,[5]; [9],1.562 ± 0.102 (g)
same,Average Tumor Inhibition Rate,[6]; [8],61.3%
same,Average Tumor Weight,[6]; [8],1.037 ± 0.198 (g)
same,Average Tumor Inhibition Rate,[6]; [9],38.7%
same,Average Tumor Weight,[6]; [9],1.641 ± 0.175 (g)
